The values below come from ChEMBL document CHEMBL1201862, “PubChem BioAssay data set” (2004).

Calls of active or inactive are those of the source. Bounds are passed on as bounds.

Assay [1] deals with Voltage-gated inwardly rectifying potassium channel KCNH2 (Homo sapiens, UniProt Q12809). The assay is described as follows: hERG protection from proarrhythmic block, potency, dose response, cell-based, thallium flux (AID 2121). Format: ADME. In general terms: Block of hERG is tested as a sign of cardiac risk.
Sequence of Voltage-gated inwardly rectifying potassium channel KCNH2 (Q12809 whole entry): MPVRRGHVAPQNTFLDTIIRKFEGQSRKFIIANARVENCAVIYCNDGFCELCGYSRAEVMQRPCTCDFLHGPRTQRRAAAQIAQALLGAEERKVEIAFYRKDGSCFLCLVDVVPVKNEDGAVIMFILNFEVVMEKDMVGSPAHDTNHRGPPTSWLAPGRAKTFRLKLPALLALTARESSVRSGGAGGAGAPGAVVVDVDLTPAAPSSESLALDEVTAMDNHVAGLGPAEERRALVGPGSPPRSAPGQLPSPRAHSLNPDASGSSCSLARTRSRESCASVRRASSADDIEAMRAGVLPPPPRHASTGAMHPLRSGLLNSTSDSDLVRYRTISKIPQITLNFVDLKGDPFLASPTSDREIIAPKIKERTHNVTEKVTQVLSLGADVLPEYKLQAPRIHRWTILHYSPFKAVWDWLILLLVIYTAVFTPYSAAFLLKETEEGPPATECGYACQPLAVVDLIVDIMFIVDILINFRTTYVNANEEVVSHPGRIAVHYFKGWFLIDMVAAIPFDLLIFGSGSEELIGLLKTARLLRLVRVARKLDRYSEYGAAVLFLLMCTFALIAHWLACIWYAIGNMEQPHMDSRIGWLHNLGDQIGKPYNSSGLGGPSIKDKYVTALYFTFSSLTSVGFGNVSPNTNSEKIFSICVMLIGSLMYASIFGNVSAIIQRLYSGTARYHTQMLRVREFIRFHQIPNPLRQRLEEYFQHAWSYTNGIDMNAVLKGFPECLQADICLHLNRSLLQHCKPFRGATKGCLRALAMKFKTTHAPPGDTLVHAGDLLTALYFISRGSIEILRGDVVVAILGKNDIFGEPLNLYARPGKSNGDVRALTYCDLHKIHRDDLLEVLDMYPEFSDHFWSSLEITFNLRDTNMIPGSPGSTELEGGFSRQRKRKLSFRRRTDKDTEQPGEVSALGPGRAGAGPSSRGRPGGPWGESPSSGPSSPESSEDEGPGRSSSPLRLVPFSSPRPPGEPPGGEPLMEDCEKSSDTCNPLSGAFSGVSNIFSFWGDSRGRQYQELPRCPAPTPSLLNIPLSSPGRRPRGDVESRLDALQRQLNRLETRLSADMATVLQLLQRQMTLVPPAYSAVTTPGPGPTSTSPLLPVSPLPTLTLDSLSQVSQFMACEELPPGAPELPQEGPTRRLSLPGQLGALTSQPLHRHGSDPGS
Assay [2] in a line: THP-1 cell cytotoxicity, dose response, cytotoxicity control for Vif-APOBEC3G degradation inhibitor project, THP-1 cells (AID 1117359). Format: functional. Particulars: Human immunodeficiency virus 1, THP-1.
The target of assay [3] is T1, Sphingosine 1-phosphate receptor 2 (Homo sapiens, UniProt O95136). The assay is described as follows: Dose Response Cell Based Assay for Antagonists of the S1P2 Receptor. [Related pubchem assays: 856, 736 ]. Format: functional.
T1 sequence (O95136 whole entry): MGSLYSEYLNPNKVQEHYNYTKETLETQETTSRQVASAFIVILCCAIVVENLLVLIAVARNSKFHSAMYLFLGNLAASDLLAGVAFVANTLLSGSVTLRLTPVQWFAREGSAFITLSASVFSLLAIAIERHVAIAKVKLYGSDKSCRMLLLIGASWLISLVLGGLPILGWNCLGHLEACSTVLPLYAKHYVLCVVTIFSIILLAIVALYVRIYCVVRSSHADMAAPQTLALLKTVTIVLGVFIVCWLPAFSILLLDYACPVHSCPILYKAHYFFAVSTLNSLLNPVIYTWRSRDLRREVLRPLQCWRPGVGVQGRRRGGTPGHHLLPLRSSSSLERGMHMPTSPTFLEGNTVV
Assay [4] can be described thus: inhibitors of intracellular T. cruzi replication, confirmation, NIH3T3 host cells, beta-gal luminescence (AID 2044).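 Also: intracellular parasites grown in NIH/3T3 mouse fibroblasts as host cells; luminescent beta-galactosidase reporter signal from transgenic T. cruzi replicating inside host cells; inhibitors lower the luminescence signal.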 Format: functional, cell-based.
A short description of assay [5]: cytotoxicity toward NIH3T3 fibroblasts, dose response, counter-screen, cell-based, ATP luminescence, mouse fibroblasts (AID 2010).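 Also: cells exposed to compound for about 90 hours before reading.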 Format: functional. Background: A counterscreen serves to expose hits that act by an unwanted route or on another target.
A short description of assay [6]: cytotoxicity in HEK-293T cells, dose response, cytotoxicity control for TCR NF-kB inhibitor project, luminescence, T-cell screen hits (AID 489026).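 Also: cells exposed to compound about 14 hours before the viability readout.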 Format: functional, cell-based.
A further assay concerns INS1. The assay is described as follows: beta cell apoptosis inhibitors, cytokine rescue, dose response, luminescence, retest (AID 449756).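 Also: cell death triggered by IL-1 beta plus TNF-alpha plus IFN-gamma mixture; protective hits raise ATP signal compared with cytokine alone wells.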 Format: functional, cell-based. The note with it: Rattus norvegicus.
A short description of assay [7]: Shn3 3'UTR reporter inhibitors, dose response, cell-based, Clone20 osteoblasts, firefly luciferase, cherry-picked (AID 624132).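 Also: firefly luciferase luminescence from reporter carrying the Shn3 3'UTR in osteoblasts.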 Format: functional.
The nature of assay [8]: HepG2 cell cytotoxicity, dose response, cytotoxicity control for Shn3 inhibitor project, CellTiter-Glo, cherry-picked (AID 624134). Format: functional, cell-based. For orientation: In ATP-based viability assays light output follows the ATP content of the culture.
The nature of assay [9]: control 3'UTR Renilla luciferase suppression, dose response, counter-screen for Shn3 inhibitor project, cell-based, Clone20-Shn3RL, cherry-picked (AID 624133). Format: functional.
The target in assay [10] is T1, Sphingosine 1-phosphate receptor 2. Description: Dose Response Cell Based Assay for Agonists of the S1P2 Receptor. [Related pubchem assays: 729, 736, 843 ]. Format: functional.
Assay [11] has as its system Vero. Description: West Nile virus antiviral activity, cell-based, CPE readout (AID 1621). Format: functional. Particulars: Chlorocebus sabaeus.
In assay [12] the target is T2, DNA repair and recombination protein RAD54-like (Homo sapiens, UniProt Q92698).
T2 sequence (Q92698 whole entry): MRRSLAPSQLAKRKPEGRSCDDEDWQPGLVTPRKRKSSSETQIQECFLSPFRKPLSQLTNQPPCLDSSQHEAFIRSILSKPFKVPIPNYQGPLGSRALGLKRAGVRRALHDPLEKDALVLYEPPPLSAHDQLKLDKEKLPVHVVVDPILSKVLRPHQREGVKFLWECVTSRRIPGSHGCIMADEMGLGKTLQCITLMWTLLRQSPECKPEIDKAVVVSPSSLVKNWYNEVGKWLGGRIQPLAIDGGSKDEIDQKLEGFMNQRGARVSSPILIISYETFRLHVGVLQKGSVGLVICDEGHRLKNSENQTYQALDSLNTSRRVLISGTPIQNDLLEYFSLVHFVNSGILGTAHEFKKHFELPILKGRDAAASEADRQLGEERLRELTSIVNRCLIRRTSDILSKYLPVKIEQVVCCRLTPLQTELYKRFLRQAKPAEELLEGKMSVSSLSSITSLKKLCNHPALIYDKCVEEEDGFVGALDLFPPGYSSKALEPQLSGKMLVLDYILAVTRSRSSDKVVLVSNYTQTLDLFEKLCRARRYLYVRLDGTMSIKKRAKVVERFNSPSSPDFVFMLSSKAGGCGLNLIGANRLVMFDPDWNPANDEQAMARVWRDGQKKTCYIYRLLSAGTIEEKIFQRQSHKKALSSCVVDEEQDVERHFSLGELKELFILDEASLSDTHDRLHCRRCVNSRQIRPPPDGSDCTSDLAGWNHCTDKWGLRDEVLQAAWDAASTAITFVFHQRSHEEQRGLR
The assay is described as follows: inhibitors of human RAD54 branch migration, confirmation, biochemical, fluorescence, cherry-picked samples, dose series (AID 651657). Format: functional.

Assay [13] concerns the target T3, DNA repair protein RAD52 homolog (Homo sapiens, UniProt P43351).
T3 sequence (P43351 whole entry): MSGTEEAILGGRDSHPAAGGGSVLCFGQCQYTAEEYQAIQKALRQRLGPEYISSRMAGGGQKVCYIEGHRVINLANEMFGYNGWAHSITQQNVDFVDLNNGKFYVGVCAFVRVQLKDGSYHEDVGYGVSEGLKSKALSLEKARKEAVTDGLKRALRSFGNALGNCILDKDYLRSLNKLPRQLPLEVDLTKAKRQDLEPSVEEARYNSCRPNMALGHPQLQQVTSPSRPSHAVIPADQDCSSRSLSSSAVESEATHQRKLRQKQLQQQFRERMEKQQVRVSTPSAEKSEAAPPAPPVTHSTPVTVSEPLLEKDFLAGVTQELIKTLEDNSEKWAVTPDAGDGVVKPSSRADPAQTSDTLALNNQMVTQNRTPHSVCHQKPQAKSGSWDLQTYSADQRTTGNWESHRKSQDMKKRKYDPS
Format: functional, biochemical.

In assay [14] the target is T4, Replicative DNA helicase DnaB (Mycobacterium tuberculosis, UniProt P9WMR3).
T4 sequence (P9WMR3 whole entry): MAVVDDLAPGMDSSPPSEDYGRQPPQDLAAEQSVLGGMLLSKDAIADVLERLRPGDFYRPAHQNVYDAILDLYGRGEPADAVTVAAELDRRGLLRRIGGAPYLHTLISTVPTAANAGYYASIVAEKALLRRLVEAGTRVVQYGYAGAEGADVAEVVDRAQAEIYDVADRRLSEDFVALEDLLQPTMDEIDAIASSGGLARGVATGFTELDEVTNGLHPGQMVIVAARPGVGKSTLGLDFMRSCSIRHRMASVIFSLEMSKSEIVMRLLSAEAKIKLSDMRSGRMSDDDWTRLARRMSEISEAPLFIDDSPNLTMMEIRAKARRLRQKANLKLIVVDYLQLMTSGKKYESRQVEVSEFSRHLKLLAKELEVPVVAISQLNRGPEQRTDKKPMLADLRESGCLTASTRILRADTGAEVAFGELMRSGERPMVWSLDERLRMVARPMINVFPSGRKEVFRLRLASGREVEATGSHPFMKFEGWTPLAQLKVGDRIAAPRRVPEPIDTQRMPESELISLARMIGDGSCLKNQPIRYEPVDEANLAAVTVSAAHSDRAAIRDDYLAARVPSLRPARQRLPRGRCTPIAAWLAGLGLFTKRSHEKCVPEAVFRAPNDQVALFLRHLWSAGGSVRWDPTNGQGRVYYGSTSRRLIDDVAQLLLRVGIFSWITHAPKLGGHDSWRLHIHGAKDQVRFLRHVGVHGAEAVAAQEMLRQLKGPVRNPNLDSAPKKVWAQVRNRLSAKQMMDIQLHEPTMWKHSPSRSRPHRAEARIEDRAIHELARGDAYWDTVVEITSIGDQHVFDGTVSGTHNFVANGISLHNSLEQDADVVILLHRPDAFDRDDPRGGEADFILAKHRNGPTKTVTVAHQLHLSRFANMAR
Description: DnaB intein splicing inhibitors, dose response, biochemical, cell-free fluorescence (AID 449749). Format: functional.

A further assay addresses T5, Protein RecA (Mycobacterium tuberculosis, UniProt P9WHJ3).
T5 sequence (P9WHJ3 whole entry): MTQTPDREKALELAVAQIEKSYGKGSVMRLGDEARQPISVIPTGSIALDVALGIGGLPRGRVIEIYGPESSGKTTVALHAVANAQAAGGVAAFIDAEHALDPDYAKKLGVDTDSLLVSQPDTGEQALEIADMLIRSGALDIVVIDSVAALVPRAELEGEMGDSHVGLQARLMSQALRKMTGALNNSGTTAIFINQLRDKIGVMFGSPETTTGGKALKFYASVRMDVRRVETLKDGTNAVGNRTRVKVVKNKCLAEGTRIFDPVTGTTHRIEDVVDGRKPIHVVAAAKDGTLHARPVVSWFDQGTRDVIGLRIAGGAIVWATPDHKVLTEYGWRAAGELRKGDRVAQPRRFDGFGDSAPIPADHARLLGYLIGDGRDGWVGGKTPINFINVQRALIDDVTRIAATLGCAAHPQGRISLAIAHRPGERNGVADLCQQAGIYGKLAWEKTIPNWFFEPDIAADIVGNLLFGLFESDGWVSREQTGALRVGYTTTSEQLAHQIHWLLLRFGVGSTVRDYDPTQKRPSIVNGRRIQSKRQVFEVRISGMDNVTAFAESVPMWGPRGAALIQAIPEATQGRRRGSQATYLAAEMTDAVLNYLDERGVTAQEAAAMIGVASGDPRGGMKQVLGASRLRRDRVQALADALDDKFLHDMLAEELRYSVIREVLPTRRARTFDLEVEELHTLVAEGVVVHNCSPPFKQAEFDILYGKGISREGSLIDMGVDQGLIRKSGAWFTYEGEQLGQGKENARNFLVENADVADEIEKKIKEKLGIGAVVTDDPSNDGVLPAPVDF
Description: Fluorescence Cell-Free Homogeneous Dose Retest to Identify Inhibitors of RecA-Intein Splicing Activity. [Related pubchem assays (depositor defined):AID2097, AID2223, AID489010, AID492950]. Format: functional.

Assay [15] concerns Vero. Description: cells. Format: functional. The note with it: Chlorocebus sabaeus.

Take `COc1ccc(-c2csc(NC(=S)NC(=O)c3cccs3)n2)cc1Br`: in assay [1], the EC50 is 1.41 µM (active).
As for `NS(=O)(=O)c1cccc(NS(=O)(=O)c2ccc(/C=C/C(=O)OCC(=O)c3ccccc3)cc2)c1`, the CC50 in assay [2] is > 40 µM (active).
For the molecule `Nc1nc(Cl)cc(N2CCC(c3cc(-c4ccc(Cl)cc4)[nH]n3)CC2)n1`, the IC50 in [3] is 7.01 µM (active); in assay [6], 64.3 µM (inactive). Besides, the results for the EC50 in [4] and in assay [5] were 2.13 µM (active) and 7.5 µM (active), respectively. Besides, the AC50 with INS1 is 4.41 µM (active); in assay [7], 2.43 µM (active); in assay [8], 19.5 µM (active); in [9], 11.1 µM (active).
Take `Cc1cc(C)n2cc(CSc3nnnn3-c3ccc(Cl)cc3)nc2n1`: the EC50 in assay [10] was > 50 µM (not active).
In the case of `CCCN(CCC)CCCN=C(S)Nc1ccc2nc(N3CCCC3)cc(C)c2c1`, the EC50 is 1.96 µM (active) in [4] and 10.1 µM (active) in assay [5]. In the assay with Vero [11], the IC50 was 25.4 µM (active). Besides, the results for the AC50 in assay [12] and in [13] were 19.4 µM (active) and 9.06 µM (active), respectively.
Regarding `Nc1c(C(=O)NCCCc2ccccc2)c2nc3ccccc3nc2n1Cc1cccs1`, the EC50 in assay [4] is 2.17 µM (active); in assay [5], > 60 µM (not active); in assay [10], 2.2 µM (active); on Protein RecA it was 3.3 µM (active). The AC50 in assay [14] was 29.3 µM (active). In addition, in the assay on Vero [15], the cytotoxic concentration (CC50) was > 25 µM (active).

Usually EC50 stands for the concentration that produces a half-maximal response. As a reminder, the CC50 is the concentration that lowers cell viability or growth by half. What is called IC50 is the point on the concentration scale where inhibition reaches its midpoint. What is called AC50 is the concentration giving half of the maximal activity seen.
